# According to ChEMBL document CHEMBL2069285, “Synthesis of N-(1-methyl-1H-indol-3-yl)methyleneamines and 3,3-diaryl-4-(1-methyl-1H-indol-3-yl)azetidin-2-ones as potential antileishmanial agents” (Bioorg Med Chem Lett, 2012):
# Test system: Leishmania major
# Experiment: Antileishmanial activity against promastigotes of Leishmania major after 72 hrs by neubauer counting chamber analysis
# Type: functional, organism-based
row,IC50 [µg/mL],Structure (SMILES)
1,0.76,Cn1cc(/C=N/c2ccccc2)c2ccccc21
2,0.66,Cc1ccc(/N=C/c2cn(C)c3ccccc23)cc1
3,0.88,CCOc1ccc(/N=C/c2cn(C)c3ccccc23)cc1
4,0.58,Cn1cc(/C=N/c2ccc(Cl)cc2)c2ccccc21
5,0.6,Cn1cc(/C=N/C(c2ccccc2)c2ccccc2)c2ccccc21
6,0.92,COc1ccc(/N=C/c2cn(C)c3ccccc23)cc1
7,0.57,Cc1ccccc1/N=C/c1cn(C)c2ccccc12
8,0.71,Cn1cc(/C=N/Cc2ccccc2)c2ccccc21
9,0.6,Cn1cc(C2N(c3ccccc3)C(=O)C2(c2ccccc2)c2ccccc2)c2ccccc21 (stereo unspecified)
10,0.59,Cc1ccc(N2C(=O)C(c3ccccc3)(c3ccccc3)C2c2cn(C)c3ccccc23)cc1 (stereo unspecified)
11,0.56,CCOc1ccc(N2C(=O)C(c3ccccc3)(c3ccccc3)C2c2cn(C)c3ccccc23)cc1 (stereo unspecified)
12,0.76,Cn1cc(C2N(c3ccc(Cl)cc3)C(=O)C2(c2ccccc2)c2ccccc2)c2ccccc21 (stereo unspecified)
13,0.56,Cc1ccc(C2(c3ccc(C)cc3)C(=O)N(c3ccccc3)C2c2cn(C)c3ccccc23)cc1 (stereo unspecified)
14,0.6,Cc1ccc(N2C(=O)C(c3ccc(C)cc3)(c3ccc(C)cc3)C2c2cn(C)c3ccccc23)cc1 (stereo unspecified)
15,0.63,CCOc1ccc(N2C(=O)C(c3ccc(C)cc3)(c3ccc(C)cc3)C2c2cn(C)c3ccccc23)cc1 (stereo unspecified)
16,0.57,Cc1ccc(C2(c3ccc(C)cc3)C(=O)N(c3ccc(Cl)cc3)C2c2cn(C)c3ccccc23)cc1 (stereo unspecified)
